Measured values published in patent US20160220602A1, “USE OF CHINESE MEDICINE PREPARATION IN PREPARING DRUG FOR PREVENTING AND/OR TREATING CROHN'S DISEASE” (TASLY PHARMACEUTICAL GROUP CO., LTD., priority 2013, published 2016).

System: OXZ-induced SD rat Crohn's disease model
Experiment: DAI score in oxazolone-caused Crohn's disease rat model
Type: in vivo, SD rats
Parameters: key: DAI = (weight loss % + stool character + hematochezia scores)/3
Conditions: 100 mg/kg
Protocol: Grouping: the experiment was carried out by using two ways of intracolonic and intragastric administration. […] There were 10 rats each group. Method for establishing rat model: referring to the Heller method, OXZ was used to induce the SD rat Crohn's disease model (abbreviated as “OXZ model”). Neck and back skin of rats were shaved (2 cm×2 cm). Ethanol was used to prepare 5% (w/v) OXZ solution, and 0.3 ml resultant OXZ solution was dripped on the skin of rats. […] The sensitized rats were adaptively raised for 5 days, […] anesthetized by intraperitoneal injection of pentobarbital sodium. […] After completion, the rats were inverted by lifting tails for 60s to make the solution totally absorbed. […] If the rats manifested dark hair color, body weight loss, poor appetite, lassitude, watery stool or diarrhea, the model establishment was success. Administration method: after successful model establishment by OXZ, the drug was given to rats. The TCM preparation k saline solutions at corresponding dose were administered to the groups of preparation k of all doses and the […] saline solution, a positive drug, administrated to the positive control group. The rats of blank control group were normally fed, given with water and the same volume of normal saline was given in the same administration routes by referring to the dosage regime of aforesaid treatment groups. The rats of model group were administrated with the same volume of normal saline in the same administration routes. The dose of each group was as follows: […] group at 100 mg/kg rat weight, the TCM preparation k high-dose group at 2.023 g raw medicine/kg rat weight, the middle-dose group at 1.012 g raw medicine/kg rat weight and the low-dose group at 0.506 g raw medicine/kg rat weight. […] (1) General Indices: weight change and stool (e.g. stool occult blood, bloody stool and diarrhea) were observed every day to calculate DAI score. DAI score=(weight loss percentage+defecate character fraction+hematochezia fraction)/3 [table]

Nc1ccc(O)c(C(=O)O)c1 [mesalamine, Mesalamine]
DAI score (Mean ± SD) (Table 14: OXZ model rats, intracolonic, 1st day): 0.267 ± 0.263 | DAI score (Mean ± SD) (Table 14: OXZ model rats, intracolonic, 2nd day): 0.400 ± 0.378 | DAI score (Mean ± SD) (Table 14: OXZ model rats, intracolonic, 3rd day): 0.300 ± 0.331 | DAI score (Mean ± SD) (Table 14: OXZ model rats, intracolonic, 4th day): 0.333 ± 0.385 | DAI score (Mean ± SD) (Table 14: OXZ model rats, intracolonic, 5th day): 0.800 ± 0.422 | DAI score (Mean ± SD) (Table 14: OXZ model rats, intracolonic, 7th day): 1.700 ± 0.637 | DAI score (Mean ± SD) (Table 14: OXZ model rats, intracolonic, 8th day): 1.500 ± 0.593 | DAI score (Mean ± SD) (Table 14: OXZ model rats, intracolonic, 9th day): 0.733 ± 0.439 | DAI score (Mean ± SD) (Table 15, as titled: intracolonic, TNBS model rats, 1st day): 0.600 ± 0.141 | DAI score (Mean ± SD) (Table 15, as titled: intracolonic, TNBS model rats, 4th day): 0.267 ± 0.211 | DAI score (Mean ± SD) (Table 15, as titled: intracolonic, TNBS model rats, 5th day): 1.000 ± 0.222 | DAI score (Mean ± SD) (Table 15, as titled: intracolonic, TNBS model rats, 8th day): 1.967 ± 0.576 | DAI score (Mean ± SD) (Table 15, as titled: intracolonic, TNBS model rats, 9th day): 1.633 ± 0.429 | DAI score (Mean ± SD) (Table 15, as titled: intracolonic, TNBS model rats, 10th day): 1.267 ± 0.625 | DAI score (Mean ± SD) (Table 15, as titled: intracolonic, TNBS model rats, 11th day): 1.067 ± 0.798
